From US8092790B2, “Methods of making formulations to affect insect behavior and/or bird behavior” (Bug Buster, Ltd., priority 2003, dated 2012)

What was measured:
[1] = system: birds; details: in vivo; cited from earlier work
[2] = system: bees (Apis mellifera L.); details: in small groups; cited from earlier work
[3] = 25° C.; cited from earlier work
[4] = system: bees (Panurgus banksianus, P. calacaratus); details: in vivo; cited from earlier work
[5] = system: house fly; details: in vivo; cited from earlier work
[6] = system: Orius tristicolor (White); details: on sticky cards; cited from earlier work
[7] = system: Deraeocoris brevis (Uhler); details: on sticky cards; cited from earlier work
[8] = system: sand fly; details: in vivo; cited from earlier work
[9] = system: green lacewing (Chrysopa nigricornis Bermeister); details: in vivo; cited from earlier work
[10] = system: bees (Apidae, Psithyrus); details: in vivo; cited from earlier work
[11] = system: mosquito; details: in vivo; cited from earlier work
[12] = system: sunflower seed weevils (Smicronyx spp.); assay: Comparison to DEET product, drawing weevils out of sunflower heads; assay type: in vivo
Excerpt: DEET is often used by entomologists in standard procedures to draw sunflower seed weevils (Smicronyx spp.) out of the heads of sunflowers. In this trial, DEET was provided in the commercially available product DEEP WOODS OFF™ repellent (S.C. Johnson and Son's, Racine, Wis.), which has approximately 28.5% active ingredient; 1.5% other isomers and 70% inert ingredients. Forty-two flowers were randomly selected from interiors of three fields. One-half of the flowers were sprayed with the DEET containing repellent while the remaining flowers were sprayed with the exemplary compound at a concentration of approximately 0.00312% methyl anthranilate, which was combined with long chained fatty acids. The number of sunflower weevils was recorded.

[13] = system: mosquito (Aedes aegyptis); assay: Mosquito repellency on human subject; assay type: in vivo; details: second trial; methyl anthranilate 0.00312%, DEET 0.24%; untreated head covered within one minute
Excerpt: In these trials, DEET was provided in the commercially available product DEEP WOODS OFF™ repellent (S.C. Johnson & Son, Inc., Racine, Wis.), which has approximately 28.5% active ingredient; 1.5% other isomers and 70% inert ingredients.
In a first trial, a human subject was exposed to a mosquito (Aedes aegyptis) rich environment without application of the exemplary compound or DEET. Within less than one minute the subject was covered with the insects. In a second trial, the subject sprayed one unclothed arm with the exemplary compound at a rate of 0.00312% and the other unclothed arm with DEET at a concentration of 0.24%. The subject's head remained untreated. Upon returning to the test area, the subject's head was covered with the insects within one minute. […] In a third trial the subject, after removing the DEET from his/her body, reapplied the exemplary compound to unclothed arms, head and neck before returning to the test area. The subject returned to and remained in the test area for more than one hour without any of the insects landing on his/her arms, hands and head while numerous insects were observed on the clothed portions of his/her anatomy.

[14] = system: seed weevil (Smicronyx spp.); assay: Comparison to 24% DEET on sunflower seed heads; assay type: in vivo; details: composition with 0.006% methyl anthranilate; DEET as 24% solution
Excerpt: An exemplary composition was compared to N,N-Diethyl-m-toluamide (DEET). The exemplary composition included an exemplary compound, methyl anthranilate (e.g., BIRDSHIELD™ at 0.006% methyl anthranilate), and an insecticide, esfenvalerate (e.g., ASANA™). A 24% DEET solution is often used in a standard evaluation process by entomologists for evaluating seed weevil (Smicronyx spp.) infestations.

[15] = system: Aenictus; details: in vivo; cited from earlier work

In the case of `CC(=O)c1ccccc1N` [o-aminoacetophone, o-aminoacetophenone], the repellency to birds [1] is given as “exhibit repellency to birds” and the effect on bees [2] is given as “repels bees”.

For `CC(C)C(C(=O)OC(C#N)c1cccc(Oc2ccccc2)c1)c1ccc(Cl)cc1` (single isomer, unassigned; (+)) [Esfenvalerate, (+)Alpha-cyano-3-phenoxybenzyl-(+)-alpha-(4-chlorophenyl)isovalerate], the water solubility [3] is listed as less than 0.3 µg/mL.

In the case of `CC(C)=CCC/C(C)=C/CO` [geraniol, 3,7-dimethyl-2,6-octadien-I-ol], the “effect on behavior of bees” value [4] is given as “affect behavior of bees”.

In the case of bisabolene, the “effect on house fly” value [5] is given as “house fly repellent”.

For `CC/C=C/CCOC(C)=O` [(E)-3-hexenyl acetate], the “attraction of Orius tristicolor” value [6] is given as “may be attracted” and the “attraction of Deraeocoris brevis” value [7] is given as “may be attracted”.

For `CC(C)=CCC/C(C)=C/C=O` [geranial], the “effect on behavior of bees” value [4] is listed as “affect behavior of bees”.

In the case of `CC(C)=CCC/C(C)=C\C(=O)O` [nerolicacid], the “effect on behavior of bees” value [4] is listed as “affect behavior of bees”.

In the case of `CC1=CCC(C(C)(C)O)CC1` (stereo not drawn) [alpha-terpineol], the “effect on sand fly” value [8] is listed as “sand fly attractant”.

In the case of `COC(=O)c1ccccc1O` [methyl salicylate], the “attraction of green lacewing” value [9] is listed as “attract”.

For `CC(C)=CCCC(C)CCO` (centres unmarked) [3,7-dimethyl-6-octen-1-ol], the “effect on behavior of bees” value [10] is given as “act as a territory marker”.

In the case of `CCCCCCCCCC(C)OC(C)=O` (centres unmarked) [2-undecyl acetate], the effect on mosquito [11] is given as “mosquito attractant”.

With `CCN(CC)C(=O)c1cccc(C)c1` [DEET, N,N-Diethyl-m-toluamide, reference compound] the “Number of insects, Mean” value ([12]; Field No. 1) was 4.4, the “Number of insects, Total” value ([12]; Field No. 1) was 44 and the “Number of insects, Mean” value ([12]; Field No. 2) was 12. For the same molecule, the “Number of insects, Total” value ([12]; Field No. 2) was 37, the “Number of insects, Mean” value ([12]; Field No. 3) was 10.3 and the “Number of insects, Total” value ([12]; Field No. 3) was 86. The “mosquitoes on treated unclothed arm” value [13] was “No mosquitoes were found”, the “insects observed in sprayed sunflower seed heads” value [14] was “No insects were observed” and the water solubility [3] was “approximately 912 mg/L”.

For `CC(C)=CCC/C(C)=C\C=O` [neral], the “effect on behavior of bees” value [4] is listed as “affect behavior of bees”.

In the case of `COC(=O)c1cccnc1` [methyl nicotinate], the “semiochemical function for Aenictus” value [15] is listed as “trail semiochemicals”.

For `CC=CC(C)C(=O)OCC` (centres unmarked) [ethyl ester of 2-methyl-3-pentenoic acid], the “effect on house fly” value [5] is given as “house fly attractant”.

In the case of `CC(C)=CCC/C(C)=C/C(=O)O` [geranolic acid], the “effect on behavior of bees” value [4] is listed as “affect behavior of bees”.

In the case of `OCCc1ccccc1` [2-phenyl-ethanol], the “effect on behavior of bees” value [4] is listed as “affect behavior of bees”.

In the case of `CC(C)=CCC/C(C)=C\CO` [nerol], the “effect on behavior of bees” value [4] is given as “affect behavior of bees”.

For `CCCCCCCO` [1-heptanol], the “effect on behavior of bees” value [4] is given as “affect behavior of bees”.
